This note sets out measurements from the SangsterLogP compilation.

One data set in a line: method code SF, from DOI: 10.1016/s0045-6535(97)00338-x.
Conditions: not given
Consider `CC(=O)c1cc(F)c(Cl)cc1Cl`, for which the logP came to 3.4. The same measure, in the same setting: the result for `CC(=O)c1ccc(F)cc1` reads 1.74; that for `Nc1ccc(F)cc1`, 1.18; that for `Nc1ccc(F)c(F)c1F`, 2.14.

Assay in the next data set: not given
Conditions: not given
As to `CCS(=O)(=O)CCn1c([N+](=O)[O-])cnc1C`, the logP was -0.38. Still for that read-out and setting: the result for `NC(=S)N/N=C/c1ccc([N+](=O)[O-])o1` reads 1.64. Same read-out and setting: the result for `NC(=S)N/N=C\c1ccco1` reads 1.64; that for `O=[N+]([O-])c1ccc(/C=N\O)o1`, 0.3.

Assay in a further data set: not given
Conditions: not given
The source holds these as a separate data set.
`FCC(F)(Cl)Cl` yielded a logP of 1.51.

Regarding `FC(F)(Cl)C(F)(F)Cl`, the logP is 2.66. Same read-out and setting: the result for `FC(F)(F)C(F)(F)Cl` reads 2.23; that for `FC(F)(Cl)Cl`, 1.93.

A short description of another data set: method code SF-HPLC, from DOI: 10.1002/jlac.1995199512305.
Conditions: not given
The compound `Cc1cn(C2CC(N=[N+]=[N-])C(COP(=O)(OCC3OC(n4cc(C)c(=O)[nH]c4=O)CC3N=[N+]=[N-])C(O)c3cccc([N+](=O)[O-])c3)O2)c(=O)[nH]c1=O` (stereo unspecified) displayed a logP of 0.79. Turning to `Cc1cn(C2CC(N=[N+]=[N-])C(COP(=O)(OCC3OC(n4cc(C)c(=O)[nH]c4=O)CC3N=[N+]=[N-])C(O)c3ccccc3[N+](=O)[O-])O2)c(=O)[nH]c1=O` (stereo unspecified), the logP amounted to 0.79. In turn, `Cc1cn(C2CC(N=[N+]=[N-])C(COP(=O)(OCC3OC(n4cc(C)c(=O)[nH]c4=O)CC3N=[N+]=[N-])C(O)c3ccc(C#N)cc3)O2)c(=O)[nH]c1=O` (stereo unspecified) yielded a logP of 0.49.

As to `Cc1cn(C2CC(N=[N+]=[N-])C(COP(=O)(OCC3OC(n4cc(C)c(=O)[nH]c4=O)CC3N=[N+]=[N-])C(O)c3ccccc3)O2)c(=O)[nH]c1=O` (stereo unspecified), the logP amounted to 0.79.

`Cc1cn(C2CC(N=[N+]=[N-])C(COP(=O)(OCC3OC(n4cc(C)c(=O)[nH]c4=O)CC3N=[N+]=[N-])C(O)c3c([N+](=O)[O-])cccc3[N+](=O)[O-])O2)c(=O)[nH]c1=O` (stereo unspecified): the logP is 0.73.

Assay in another data set: not given
Conditions: not given
This is another data set of the same source.
With `CCCN1C=CCC(C(=O)OC2CCC3C4CCc5cc(O)ccc5C4CC23C)=C1` (stereo unspecified), the logP was 4.79. Same read-out and setting: the result for `CCN1C=CCC(C(=O)OC2CCC3C4CCc5cc(O)ccc5C4CC23C)=C1` (stereo unspecified) reads 4.66; that for `CCCCCCN1C=CCC(C(=O)OC2CCC3C4CCc5cc(O)ccc5C4CC23C)=C1` (stereo unspecified), 5.07; that for `CC12CC3c4ccc(O)cc4CCC3C1CCC2OC(=O)C1=CN(CCCO)C=CC1` (stereo unspecified), 4.89. The same measure, in the same setting: the result for `CC12CC3c4ccc(O)cc4CCC3C1CCC2OC(=O)C1=CN(Cc2ccccc2)C=CC1` (stereo unspecified) reads 5.39.

The next data set is described as follows: method code SF, from DOI: 10.1016/j.jiec.2010.03.003.
Conditions: not given
For `CCC(C)(C)OC`, the logP is 1.81. Still for that read-out and setting: the result for `CC(C)OC(C)C` reads 1.94. `CCOC(C)(C)C`: the logP was 1.71. The same measure, in the same setting: the result for `C=COCCC` reads 2.

A further data set can be described thus: method code SF-HPLC, from DOI: 10.1023/a:1015956705293, PMID: 3244625.
Conditions: not given
For the compound `COC(=O)CCC(=O)OCC(=O)C1(O)CCC2C3CCC4=CC(=O)CCC4(C)C3C(O)CC21C` (stereo unspecified), the logP came out at 2.58. Still for that read-out and setting: the result for `C[C@]12CCC(=O)C=C1CC[C@@H]1[C@@H]2[C@@H](O)C[C@@]2(C)[C@H]1CC[C@]2(O)C(=O)COC(=O)CCCCCO` reads 2.79; that for `CN(C)C(=O)CCC(=O)OCC(=O)[C@@]1(O)CC[C@H]2[C@@H]3CCC4=CC(=O)CC[C@]4(C)[C@H]3[C@@H](O)C[C@@]21C`, 2.03.

Staying with this data set, now noted: pH 2.5.
Usually logD stands for lipophilicity at a set pH, counting ionised and neutral species. Low readings indicate lower lipophilicity, high ones higher lipophilicity. Compound `CC12CCC(=O)C=C1CCC1C2C(O)CC2(C)C1CCC2(O)C(=O)COC(=O)CCC(=O)O` (stereo unspecified) registered a logD of 2.11.

Still in this data set, the particulars now being: pH 3.3.
The compound `C[C@]12CCC(=O)C=C1CC[C@@H]1[C@@H]2[C@@H](O)C[C@@]2(C)[C@H]1CC[C@]2(O)C(=O)COC(=O)CCCCCC(=O)O` had a logD of 3.26.

Assay in a further data set: not given
Conditions: not given
This is another data set of the same source.
Consider `O=C(Cn1ccc2cc(C(=O)O)ccc21)Oc1ccc(-c2ccccc2)cc1`, for which the logP was determined as 3.2.

A further data set is described as follows: method code SF-AS, from PMID: 640322. As to conditions: pH 4.0.
As to `NC(=O)N(CCCN(N=O)C(N)=O)N=O`, the logD is -0.3. Consider `CC(C)CN(N=O)C(N)=O`, for which the logD was 1.04. The same measure, in the same setting: the result for `CCCN(N=O)C(N)=O` reads 0.3; that for `CCN(N=O)C(N)=O`, -0.15.

The nature of a further data set: method code SF-GLC, from Boikov, Yu.; Shibaev, V.; Gaidamaka, V.; V'yunov, K. (1989). Study of correlation between extraction characteristics of glycidyl ethers and theri structure. 62(1)177-179.
Conditions: not given
As for `CCCOCC1CO1` (stereo unspecified), the logP was determined as 0.5.

Take `COCC1CO1` (stereo unspecified): the logP came to 0.03. The same measure, in the same setting: the result for `CC(C)OCC1CO1` (stereo unspecified) reads 0.8; that for `CCCCOCC1CO1` (stereo unspecified), 0.55.

A further data set in a line: method code SF-AS, from DOI: 10.1007/s001289900158, PMID: 8661463.
Conditions: not given
The compound `Clc1ccc(Cl)nn1` yielded a logP of 0.93. Regarding `O=[N+]([O-])c1c(Cl)ncnc1Cl`, the logP was 0.45.

In turn, `O=[N+]([O-])c1ccc(Cl)nc1Cl` gave a logP of 1.96. On the same count and under the same terms, the result for `NNc1nc(NN)nc(Nc2ccccc2)n1` reads 1.07.

Assay in the next data set: not given
Conditions: not given
The source holds these as a separate data set.
Take `CC(C)[N+](=O)[O-]`: the logP came to 0.8. Still for that read-out and setting: the result for `CCCCCC[N+](=O)[O-]` reads 2.7.

For the compound `CC(C)C[N+](=O)[O-]`, the logP was 1.4. On the same count and under the same terms, the result for `CCC(C)[N+](=O)[O-]` (stereo unspecified) reads 1.2.

The nature of another data set: method code SF-AS, from DOI: 10.1211/0022357001777513, PMID: 11186244. The following applies: pH 7.3.
`OCC(O)COc1ccccc1-c1c2nc(c(-c3ccccc3OCC(O)CO)c3ccc([nH]3)c(-c3ccccc3OCC(O)CO)c3nc(c(-c4ccccc4OCC(O)CO)c4ccc1[nH]4)C=C3)C=C2` (stereo unspecified) showed a logD of 4.67. Still for that read-out and setting: the result for `OCC(O)COc1c(F)ccc(-c2c3nc(c(-c4ccc(F)c(OCC(O)CO)c4F)c4ccc([nH]4)c(-c4ccc(F)c(OCC(O)CO)c4F)c4nc(c(-c5ccc(F)c(OCC(O)CO)c5F)c5ccc2[nH]5)C=C4)C=C3)c1F` (stereo unspecified) reads 2.51; that for `Oc1ccccc1-c1c2nc(c(-c3ccccc3O)c3ccc([nH]3)c(-c3ccccc3O)c3nc(c(-c4ccccc4O)c4ccc1[nH]4)C=C3)C=C2`, 4.58. The compound `Oc1cccc(-c2c3nc(c(-c4cccc(O)c4F)c4ccc([nH]4)c(-c4cccc(O)c4F)c4nc(c(-c5cccc(O)c5F)c5ccc2[nH]5)C=C4)C=C3)c1F` showed a logD of 4.6. As for `OCC(O)COc1ccc(-c2c3nc(c(-c4ccc(OCC(O)CO)cc4)c4ccc([nH]4)c(-c4ccc(OCC(O)CO)cc4)c4nc(c(-c5ccc(OCC(O)CO)cc5)c5ccc2[nH]5)C=C4)C=C3)cc1` (stereo unspecified), the logD is 4.93.

A short description of the next data set: method code SF-RC, from DOI: 10.1002/ps.2780130506.
Conditions: not given
For `CNC(=O)ON=C(C)C`, the logP was -0.13. Still for that read-out and setting: the result for `NC(=O)Nc1ccc(Oc2ccc(Br)cc2)cc1` reads 3.7; that for `CNC(=O)ON=Cc1ccc(Cl)cc1`, 2.27.

Consider `CNC(=O)O/N=C/c1ccccc1`, for which the logP was found to be 1.49.

Assay in another data set: not given
Conditions: not given
This is another data set of the same source.
The compound `O=C(O)c1nc(Cl)ccc1Cl` gave a logP of 1.06.

`CCOC(=O)c1cc(Cl)nc(Cl)c1` registered a logP of 3.6. On the same count and under the same terms, the result for `O=C(O)c1cc(Br)nc(Br)c1` reads 2.8; that for `O=C(O)c1cc(Cl)nc(Cl)c1`, 2.6.

A further data set can be described thus: method code SF-AS, from Ganga, L. X. J. S., & Zun-Yaob, L. H. W. (2009). Determination of lgKow and QSPR Study on Some Fluorobenzene Derivatives. Jiegou Huaxue, 28(10).
Conditions: not given
As to `Oc1ccc(F)cc1F`, the logP came out at 1.9. The same measure, in the same setting: the result for `Fc1ccccc1F` reads 2.1; that for `Fc1ccc(F)c(F)c1`, 2.34; that for `Fc1cc(F)c(F)cc1F`, 2.44.

Assay in the next data set: not given
Conditions: not given
This is another data set of the same source.
In the case of `Fc1cccc(F)c1`, the logP is 2.33. The same measure, in the same setting: the result for `OCc1ccccc1Br` reads 2.08; that for `OCc1ccccc1I`, 2.43.

`Nc1c(F)cccc1F`: the logP worked out at 1.61.

The nature of another data set: method code SF-GLC, from DOI: 10.1007/bf00343116, PMID: 4026577.
Conditions: not given
As for `N#CCCC#N`, the logP was -0.99. With `N#CCCCCC#N`, the logP was -0.32. Same read-out and setting: the result for `N#CCCCCCCCCC#N` reads 1.75; that for `N#CCCCC#N`, -0.72.

Another data set in a line: method code SF-HPLC, from DOI: 10.1007/bf00269028, PMID: 6488439.
Conditions: not given
For the compound `Nc1cc[nH]c(=O)n1`, the logP was -1.49. On the same count and under the same terms, the result for `Nc1ccn([C@@H]2O[C@@H]3CO[C@H]2[C@@H]3O)c(=O)n1` reads -1.64.

As for `Nc1ccn(C2OC(CCl)C(O)C2O)c(=O)n1` (stereo unspecified), the logP was -1.05. On the same count and under the same terms, the result for `Cc1c[nH]c(=O)[nH]c1=O` reads -0.57.

A further data set is described as follows: method code SF, from DOI: 10.1021/js9700917, PMID: 9452977. The following applies: pH 5.5.
Consider `CC(=O)Nc1ccc(S(=O)(=O)Nc2nc(C)c(C)o2)cc1`, for which the logD came to 0.46. Consider `CC(=O)Nc1ccc(S(=O)(=O)Nc2cc(C)nc(C)n2)cc1`, for which the logD is -0.14. As for `NS(=O)(=O)c1ccncn1`, the logD was -0.2.

`NC(=S)NS(=O)(=O)c1ccc(N)cc1` had a logD of 0.52.
